Assay results: US11707442B2, “Antibacterial and antifungal compounds” (The General Hospital Corporation, priority 2015, dated 2023)

How the values were obtained:
S. aureus = experiment: Disc clearing assay; assay type: cell-based, Staphylococcus aureus; conditions: result in words
Procedure: Disc clearing assay: The disc diffusion test was performed on Mueller Hinton (MH) agar plates for bacterial cultures and yeast extract, peptone, dextrose (YPD) for fungal cultures. The assay was repeated 3 times. Discs were soaked in 10 μl of either DMSO or 10 mg/ml compound stock solution and air-dried. Three hundred microliters of an overnight culture of bacteria or fungi were spread on plates. After completely drying the agar plate in a laminar flow hood, DMSO or compound impregnated discs were overlaid on the plate and incubated at 35° C. for 18 hrs.
The disc diffusion test was carried out in triplicate on cation-adjusted Miller-Hinton agar. 6 mm discs were impregnated with 50 μg of compounds and air-dried. Three hundred microliters of an overnight S. aureus MW2 culture was spread on an agar plate and air-dried. The antimicrobial discs were overlaid on the plate and incubated at 37° C. for 20 hrs.

[1] = tested on: S. aureus MW2 (MRSA) in neutropenic mouse thigh; assay type: in vivo
Procedure: Deep-seated mouse thigh infection model for evaluating drug efficacy. A previously described protocol to mimic a chronic, deep-tissue infection was used with modifications (See, e.g., Conlon, B. P. et al. Activated ClpP kills persisters and eradicates a chronic biofilm infection. Nature 503, 365-370 (2013)). Six-week-old female CD1 ICR outbred mice (20-25 g) were obtained from Charles River Laboratories. To make mice neutropenic, 150 mg/kg and 100 mg/kg of cyclophosphamide were administered intraperitoneally (i.p.) at 4 days and 1 day before infection, respectively. On the day of infection, ˜10^7 cells of stationary-phase S. aureus MW2 resuspended in 50 μl saline were injected to the right thigh of each mouse. […] Control mice were injected with 200 μl of 10% Kolliphor EL/ethanol in saline i.p. every 12 h for 3 days. After euthanizing mice at 96 h post-infection, blood was collected by cardiac puncture and the infected thighs were aseptically excised. All samples were stored at 4° C. until use. Serum was analyzed for alanine aminotransferase and urea nitrogen content with commercially available kits, following the manufacturer's protocol (Pointe Scientific, Canton, Mich., USA). Thighs were homogenized in PBS and the number of MRSA in homogenates was enumerated by serial dilution and spot-plating on TSA plates, and bacterial load was recorded as CFU/g thigh tissue. […] Statistical significance among each group was analyzed by one-way ANOVA with post-hoc Tukey test using PASW Statistics 18 (SPSS Inc. Chicago, Ill., USA).
At 12 h after the last treatment, mice were euthanized and their thighs were excised and homogenized. […] Statistical differences between control and antibiotic treatment groups were analyzed by one-way ANOVA and post-hoc Tukey test (***p<0.001).
At 12 h after the last treatment, mice were euthanized, blood was collected and analyzed for ALT and BUN. […] Control and antibiotic treatment were analyzed by one-way ANOVA and post-hoc Tukey test to confirm a lack of significant difference

[2] = Giant unilamellar vesicles (GUVs) disruption; conditions: DOPC/DOPG 7:3; 1× and 10×MIC; result in words
human erythrocytes = experiment: Human blood hemolysis; assay type: cell-based; conditions: increasing concentrations; result in words
Procedure: Human blood hemolysis. Hemolytic activity of retinoids on human erythrocytes was evaluated using a previously described method with modifications (Rajamuthiah, R. et al. A defensin from the model beetle Tribolium castaneum acts synergistically with telavancin and daptomycin against multidrug resistant Staphylococcus aureus. PLoS ONE 10, e0128576 (2015)). 10% human erythrocytes were purchased from Rockland Immunochemicals (Limerick, Pa., USA). The erythrocytes were diluted to 4% with PBS, and 100 μl was added to 100 μl of two-fold serial dilutions of compounds in PBS, 0.2% DMSO (negative control), or 2% Triton-X 100 (positive control) in a 96-well plate. The 96-well plate was incubated at 37° C. for 1 h and then centrifuged at 500×g for 5 min. 100 μl of the supernatant was transferred to a fresh 96-well plate, and absorbance of supernatants was measured at 540 nm. Percent hemolysis was calculated using the following equation: (A540 nm of compound treated sample—A540nm of 0.1% DMSO treated sample)/(A540 nm of 1% Triton X-100 treated sample—A540nm of 0.1% DMSO treated sample)×100. HC50 (concentration of a compound causing 50% hemolysis) was determined using SigmaPlot 10.0 (Systat Software Inc., San Jose, Calif., USA).
In a 96 well plate, 50 μl of 2% human erythrocytes suspended in PBS was added to 50 μl of compounds serially diluted in PBS and incubated at 37° C. for 1 hour. The plate was then centrifuged at 500 G for 5 minutes and 50 μl of the supernatant from each well of the assay plate was transferred to a fresh 96 well plate. Hemolysis was confirmed by both visual observation and measuring absorbance at 540 nm. Treatment was conducted in triplicate.
2% human erythrocytes were treated with two-fold serially diluted concentration of the retinoids for 1 h at 37° C. A sample treated with 1% Triton-X 100 was used as the control for 100% hemolysis. Results are shown as means±s.d.; n=3.

hERG potassium channel = biological target: T1, hERG potassium channel (Homo sapiens, UniProt Q12809); experiment: hERG potassium channel inhibition (IonWorks HT, CHO cells); assay type: cell-based; conditions: at 25 μM
T1 construct: host or cells: Chinese hamster ovary (CHO) cells
T1 sequence (Q12809 whole entry): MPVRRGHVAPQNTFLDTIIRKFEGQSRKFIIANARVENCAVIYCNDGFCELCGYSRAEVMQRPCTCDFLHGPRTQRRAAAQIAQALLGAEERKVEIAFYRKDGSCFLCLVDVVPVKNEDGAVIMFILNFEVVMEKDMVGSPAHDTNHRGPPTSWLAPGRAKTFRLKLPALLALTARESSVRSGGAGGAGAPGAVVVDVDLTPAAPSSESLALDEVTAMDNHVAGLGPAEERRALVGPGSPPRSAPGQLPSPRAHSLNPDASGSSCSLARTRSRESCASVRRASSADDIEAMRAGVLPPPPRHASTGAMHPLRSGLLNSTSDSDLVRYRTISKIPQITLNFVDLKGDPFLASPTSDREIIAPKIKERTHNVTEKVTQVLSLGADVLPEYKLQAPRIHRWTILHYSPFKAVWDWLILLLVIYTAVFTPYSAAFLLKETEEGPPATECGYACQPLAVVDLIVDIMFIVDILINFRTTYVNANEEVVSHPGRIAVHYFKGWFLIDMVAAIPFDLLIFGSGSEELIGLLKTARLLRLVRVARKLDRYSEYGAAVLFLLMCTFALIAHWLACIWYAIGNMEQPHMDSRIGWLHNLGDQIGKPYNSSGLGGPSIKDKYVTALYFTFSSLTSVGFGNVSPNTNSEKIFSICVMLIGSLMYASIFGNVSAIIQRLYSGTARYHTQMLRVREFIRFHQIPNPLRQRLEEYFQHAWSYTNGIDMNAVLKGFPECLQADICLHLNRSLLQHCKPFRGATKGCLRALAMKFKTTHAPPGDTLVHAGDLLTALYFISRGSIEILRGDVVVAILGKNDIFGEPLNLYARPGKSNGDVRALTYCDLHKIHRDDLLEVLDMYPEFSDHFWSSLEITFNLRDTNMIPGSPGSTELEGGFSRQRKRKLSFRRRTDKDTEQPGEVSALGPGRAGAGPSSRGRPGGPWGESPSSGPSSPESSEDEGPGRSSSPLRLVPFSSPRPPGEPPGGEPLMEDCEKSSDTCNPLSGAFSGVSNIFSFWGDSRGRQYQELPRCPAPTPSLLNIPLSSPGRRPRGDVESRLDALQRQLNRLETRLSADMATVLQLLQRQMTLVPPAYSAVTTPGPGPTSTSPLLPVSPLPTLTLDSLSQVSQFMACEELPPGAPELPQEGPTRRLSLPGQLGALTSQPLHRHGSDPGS
Procedure: Evaluation of human ether-a-go-go-related gene (hERG) potassium channel inhibition potential. […] Electrophysiology measurement was conducted using an IonWorks™ HT instrument (Molecular Devices Corporation, Sunnyvale, Calif., USA) and 384-well planar PatChPlate™ (Molecular Devices Corporation). Briefly, Chinese hamster ovary (CHO) cells expressing the hERG potassium channel were dispensed into 384-well planar arrays, and hERG tail currents were measured by whole-cell voltage clamping. A range of concentrations (0.008 μM to 25 μM) of each retinoid were then added to the cells, and a second recording of the hERG current was made. The percent change in the hERG current was calculated.

| Compound | zone of inhibition, S. aureus (S. aureus) | MRSA cells killed in thigh ([1]; CD437 20 mg/kg i.p. alone, every 12 h for 3 days) [%] | persisters killed in thigh, combination ([1]; CD437 20 mg/kg i.p. plus gentamicin 30 mg/kg s.c., every 12 h for 3 days) [%] | serum levels of ALT or BUN ([1]; mouse, in vivo, ip, 20 mg/kg) | integrity of giant unilamellar vesicles (GUVs) [2] | toxicity (hemolysis) to erythrocytes (human erythrocytes) | inhibition of hERG potassium channels (hERG potassium channel) |
| --- | --- | --- | --- | --- | --- | --- | --- |
| O=C(O)c1ccc2cc(-c3ccc(O)c(C45CC6CC(CC(C6)C4)C5)c3)ccc2c1 [CD437, 6-(4-hydroxy-3-tricyclo[3.3.1.13,7]dec-1-ylphenyl)-2-naphthalenecarboxylic acid] | inhibits the growth | ~90 | ~99 | did not have elevated serum levels |  |  |  |
| O=C(O)c1ccc(-c2ccc3cc(O)c(C45CC6CC(CC(C6)C4)C5)cc3c2)cc1 [CD1530, 4-(6-hydroxy-7-tricyclo[3.3.1.13,7]dec-1-yl-2-naphthalenyl)-benzoic acid] |  |  |  |  | disrupt the integrity | not toxic | did not inhibit |
| O=C(O)/C=C/c1ccc(-c2ccc(O)c(C34CC5CC(CC(C5)C3)C4)c2)cc1 [Adarotene, (2E)-3-(4′-Hydroxy-3′-tricyclo[3.3.1.13,7]dec-1-yl[1,1′-biphenyl]-4-yl)-2-propenoic acid] |  |  |  |  | disrupt the integrity | not toxic | did not inhibit |
